Test results reported in article PMC2009665, “The bacterial mutation test. Six tests for carcinogenicity” (British Journal of Cancer, 1978).
Where two headings read alike, the source gives them in different places.

Columns and labels:
[1] = test system: Salmonella typhimurium TA 1538
[2] = test system: Salmonella typhimurium TA 100
[3] = test system: Salmonella typhimurium TA 1538; conditions: cited from earlier work
[4] = test system: Salmonella typhimurium TA 100; conditions: cited from earlier work
[5] = test system: Salmonella typhimurium TA 1535
[6] = test system: Salmonella typhimurium TA 98
[7] = test system: Salmonella typhimurium TA 1535; conditions: cited from earlier work
TA 1537 = conditions: cited from earlier work
[8] = test system: Salmonella typhimurium (TA 1535, TA 1538, TA 98 and TA 100)
S. typhimurium = conditions: cited from earlier work
Strain G46 = conditions: cited from earlier work
Strain C 3076 = conditions: cited from earlier work
Strain TA 1530 = conditions: cited from earlier work
[9] = test system: Salmonella typhimurium TA 98; conditions: cited from earlier work
Strain TA 1532 = conditions: Lab 8; H induction method unknown; ref Green (1974); cited from earlier work
strain TA 1950 = conditions: after induction of enzymes with BHT; ref Green, 1974; cited from earlier work
strain TA 1952 = conditions: after induction of enzymes with BHT; ref Green, 1974; cited from earlier work

For Nc1ccc2cc3ccccc3cc2c1 [2-Aminoanthracene], which “Result on TA 1538” value [1] is on record?
The value was “+”.

And the “Result on TA 100” value [2]?
The value was “+”.

What about the “Result on TA 1538” value [3] of the same molecule?
Its value is “+”.

And the “Result on TA 100” value [4]?
The value was “+”.

Which results are given for Nc1ccc2ccccc2c1 [2-Naphthylamine]?
Result on TA 1535 [5]: +; Result on TA 98 [6]: -; Result on TA 1535 [7]: +

Which results are given for Nc1ccc(-c2ccccc2)cc1 [4-Aminobiphenyl]?
Result on TA 1535 [5]: -; Result on TA 1538 [1]: +; Result on TA 98 [6]: +; Result on TA 1537 (TA 1537): +

With CN(C)c1ccc(N=Nc2ccccc2)cc1 [4-Dimethylaminoazobenzene] as the molecule, how does the “Result on TA 1535” value [5] read?
Its value is “+”.

And the “Result on TA 1538” value [1]?
The value was “+”.

What about the “Result on TA 98” value [6] of the same molecule?
Its value is “+”.

And the “Result on TA 100” value [2]?
The value was “+”.

And the “Result in the present study” value [8]?
Its value is “positive”.

What about the “Result on TA 1538” value [3] of the same molecule?
Its value is “+”.

What about the “Response in the plate incorporation assay” value (S. typhimurium; plate incorporation assay, ref Commoner et al. (1974)) of the same molecule?
Its value is “unable to obtain a positive response”.

For Nc1cc2c3ccccc3ccc2c2ccccc12 [6-Aminochrysene], which “Result on TA 1535” value [5] is on record?
Its value is “-”.

What about the “Result on TA 98” value [6] of the same molecule?
Its value is “+”.

And the “Result on TA 1537” value (TA 1537)?
Its value is “+”.

Which results are given for Cc1c2ccccc2c(C)c2c1ccc1ccccc12 [9,10-Dimethyl-1,2-benzanthracene]?
Maximum fold increase in Salmonella revertants above the concurrent negative-control values, TA 1535 [5]: -; Concentration of the compound at which the maximum effect occurred, TA 1538 [1]: 2500; Maximum fold increase in Salmonella revertants above the concurrent negative-control values, TA 1538 [1]: 4 fold; Maximum fold increase in Salmonella revertants above the concurrent negative-control values, TA 98 [6]: -; Concentration of the compound at which the maximum effect occurred, TA 100 [2]: 2500; Maximum fold increase in Salmonella revertants above the concurrent negative-control values, TA 100 [2]: 5 fold; Test result (prediction of carcinogenicity from the test) [8]: +

With O=C1CCO1 [/3-Propiolactone] as the molecule, how does the “Result on TA 1538” value [1] read?
The value was “+”.

What about the “Result on TA 98” value [6] of the same molecule?
The value was “-”.

And the “Result on TA 100” value [2]?
The value was “+”.

And the “Result on TA 100” value [4]?
The value was “+”.

And the “Result on other strains: G46” value (Strain G46)?
The value was 46+.

What about the “Result on other strains: C 3076” value (Strain C 3076) of the same molecule?
Its value is 76+.

With CCN(CC)N=O [Diethylnitrosamine] as the molecule, how does the “Result in the present study” value [8] read?
The value was “positive”.

What about the “Result on subsequent testing” value [8] of the same molecule?
Its value is “negative”.

Which “Result on TA 1535” value [5] does the source give for CN(C)N=O [Dimethylnitrosamine] here?
Its value is “-”.

What about the “Result on TA 1538” value [1] of the same molecule?
The value was “-”.

And the “Result on TA 98” value [6]?
Its value is “-”.

What about the “Result in the present study” value [8] of the same molecule?
The value was “negative”.

What about the “Result on subsequent testing” value [8] of the same molecule?
Its value is “positive results have, on occasions”.

What about the “Result on other strains: TA 1530” value (Strain TA 1530; Lab 4, P Phenobarbital induction and S9 mix added, L tested in liquid culture, ref Bartsch et al. (1976)) of the same molecule?
The value was 3+.

With CCOS(C)(=O)=O [Ethyl methanesulphonate] as the molecule, how does the “Result on TA 1535” value [5] read?
Its value is “+”.

And the “Result on TA 1538” value [1]?
The value was “+”.

What about the “Result on TA 98” value [6] of the same molecule?
The value was “+”.

What about the “Result on TA 100” value [2] of the same molecule?
The value was “+”.

And the “Result in the present study” value [8]?
The value was “detected in all 4 strains”.

And the “Result on TA 1535” value [7]?
Its value is “+”.

And the “Result on TA 100” value [4]?
The value was “+”.

What about the “Result on other strains: G46” value (Strain G46) of the same molecule?
The value was 46+.

And the “Result on other strains: C 3076” value (Strain C 3076)?
Its value is 76+.

For CN(C)P(=O)(N(C)C)N(C)C [Hexamethylphosphoramide], which “Result on TA 1538” value [1] is on record?
The value was “-”.

And the “Result on TA 98” value [6]?
The value was “-”.

What about the “Result on TA 1538” value [3] of the same molecule?
The value was “-”.

What about the “Result on TA 98” value [9] of the same molecule?
The value was “-”.

For NN [Hydrazine], which “Result on TA 1535” value [5] is on record?
The value was “+”.

What about the “Result on TA 1538” value [1] of the same molecule?
The value was “-”.

And the “Result on TA 98” value [6]?
Its value is “+”.

And the “Result on TA 100” value [2]?
Its value is “+”.

What about the “Result on TA 1535” value [7] of the same molecule?
The value was “+”.

What about the “Result on TA 1538” value [3] of the same molecule?
The value was “-”.

And the “Result on TA 1537” value (TA 1537)?
The value was “-”.

What about the “Result on other strains: TA 1530” value (Strain TA 1530; Lab 2, W no S9 mix, ref McCann et al. (1975) and references quoted therein) of the same molecule?
The value was 3+.

What about the “Result on other strains: G46” value (Strain G46) of the same molecule?
Its value is 46+.

What does the source list for C=CCc1ccc2c(c1)OCO2 [Safrole]?
Result on TA 1538 [1]: -; Result in the present study [8]: positive; Result on TA 1537 (TA 1537): -; Result on other strains: TA 1530 (Strain TA 1530; Lab 8, H induction method unknown, ref Green (1974)): 3+; Result on other strains: TA 1532 (Strain TA 1532): 2+; Result in host-mediated assay, strain TA 1950 (strain TA 1950): positive; Result in host-mediated assay, strain TA 1952 (strain TA 1952): positive

Which “Result on TA 1535” value [5] does the source give for CCOC(N)=O [Urethane] here?
The value was “-”.

What about the “Result on TA 1538” value [1] of the same molecule?
Its value is “-”.

And the “Result on TA 98” value [6]?
The value was “-”.

What about the “Result on TA 1535” value [7] of the same molecule?
The value was “-”.

And the “Result on TA 98” value [9]?
The value was “-”.

What about the “Result on TA 1537” value (TA 1537) of the same molecule?
Its value is “-”.

With C=CCl [Vinyl chloride] as the molecule, how does the “Result dissolved in DMSO” value (S. typhimurium) read?
Its value is “negative”.

What about the “Result when tested as a gas” value (S. typhimurium) of the same molecule?
The value was “positive”.
